Measurements: patent publication US9309275B2, “3′-deoxy nucleosides for the treatment of HCV” (Idenix Pharmaceuticals, Inc., priority 2013, dated 2016)
Where two headings read alike, the source gives them in different places.

Assays:
[1] = Cytotoxicity evaluation, CellTiter-Blue Cell Viability Assay; format: cell-based; conditions: human
Experimental: (§1) For cytotoxicity evaluation, Zluc cells were treated with test compound as described herein, and cell viability was monitored using the CellTiter-Blue Cell Viability Assay (Promega) by adding 20 μL of the assay solution to each well. The plates were then incubated at 37° C./5% CO2 for at least 3 hours.

HCV genotype 1b replicon = test: HCV replicon assay (Zluc luciferase reporter); format: cell-based
Experimental: Huh-7-derived cell line (Zluc) that harbors an HCV genotype 1b replicon and a luciferase reporter gene was grown in Dulbecco's Modified Eagle Medium (DMEM) supplemented with 10% fetal bovine serum, 2 mM GlutaMAX, 1% MEM nonessential amino acids, 100 IU/mL penicillin, 100 μg/mL streptomycin, and 0.5 mg/mL Geneticin® (G418). For dose response testing the cells were seeded in 96-well plates at 7.5×10^3 cells per well in a volume of 50 μL, and incubated at 37° C./5% CO2. Drug solutions were made up freshly in Huh-7 media as 2× stocks. Ten additional 5-fold dilutions were prepared from these stocks in DMEM without G418. At least three hours after Zluc cells were seeded, drug treatment was initiated by adding 50 μL of drug dilutions to the plates in duplicate. Final concentrations of drug ranged from 100 μM to […]. Cells were then incubated at 37° C./5% CO2. Alternatively, compounds were tested at two concentrations (1 μM and 10 μM). […] For this, media was removed from the plates via gentle tapping. Fifty microliters of ONE-glo luciferase assay reagent was added to each well. The plates were shaken gently for 3 min at room temperature and luminescence was measured on a Victor^3 V 1420 multilabel counter (Perkin Elmer) with a 1 second read time using a 700 nm cut-off filter. The EC50 values were calculated from dose response curves from the resulting best-fit equations determined by Microsoft Excel and XLfit 4.1 software. When screening at two fixed concentrations, the results were expressed as % inhibition at 1 μM and 10 μM.

Zluc cells = test: Cytotoxicity evaluation, CellTiter-Blue Cell Viability Assay; format: cell-based; conditions: read-out: HCV Replicon CC50
Experimental: as §1

[2] = target: T1, HCV genotype 1b NS5B protein containing the S282T mutation (Hepatitis C virus genotype 1b, UniProt Q9WMX2, S2701T); test: HCV polymerase enzyme assay, S282T mutant; format: biochemical; conditions: purified recombinant genotype 1b NS5B with S282T mutation; compounds tested as nucleoside triphosphates
T1 construct: HCV genotype 1b NS5B protein were used to generate recombinant HCV polymerases (with a deletion of the 21 carboxy terminal amino acids); made in house
Description: (§2) Test compounds in the form of nucleoside triphosphates were examined for inhibitory activity against purified HCV polymerase in a standard assay. Bacterial expression constructs encoding the approximately 65 kDa HCV genotype 1b NS5B protein were used to generate recombinant HCV polymerases (with a deletion of the 21 carboxy terminal amino acids). Both the wild-type genotype 1b protein and protein containing the S282T mutation were expressed and purified for use in the enzymatic activity assay.
(§3) The enzymatic activity assay measured the inhibitory effect of increasing concentrations of test compound on the incorporation of α-[^33P]-labeled nucleotide into trichloroacetic acid-precipitable material. Recombinant polymerase and synthetic RNA template were combined in reaction buffer containing ribonucleoside triphosphates, α-[^33P]-labeled nucleotide and eight concentrations of test compound in three-fold dilutions. […]
(§4) Reactions were terminated by the addition of ice-cold trichloroacetic acid and sodium pyrophosphate to promote precipitation of newly-synthesized ribonucleic acid. Precipitable material from the reactions was collected by filtration onto 96-well filter plates, washed extensively with water, and quantified by liquid scintillation.
(§5) The inhibitory activity of test compounds was determined by fitting results to dose-response curves using XLfit software.

[3] = target: T2, wild-type HCV genotype 1b NS5B protein (Hepatitis C virus genotype 1b, UniProt Q9WMX2); test: HCV polymerase enzyme assay, wild-type; format: biochemical
T2 construct: HCV genotype 1b NS5B protein were used to generate recombinant HCV polymerases (with a deletion of the 21 carboxy terminal amino acids); made in house
Description: as §2, §3, §4, §5

[4] = Zluc cells, read-out: HCV Replicon CC50
[5] = read-out: HCV Replicon EC50, Huh-7-derived Zluc cells, 72 hours of incubation
[6] = Hepatitis C virus, 72 h, Huh-7-derived Zluc cells, 72 hours of incubation, read-out: HCV Replicon EC50
[7] = Huh-7-derived Zluc cells, 72 hours of incubation, read-out: HCV Replicon EC50
[8] = Zluc cells (HCV replicon cells)

CC(C)OC(=O)[C@H](C)NP(=O)(OC[C@@H]1C[C@@](C)(F)[C@H](n2cnc3c(=O)[nH]c(N)nc32)O1)Oc1ccccc1 (single isomer, unassigned) [1b Diastereomer 1]
CC50 at 72 h [1, 4]: > 50 µM
EC50 (HCV genotype 1b replicon; [5]): 1 to 10 µM

CCOc1nc(N)nc2c1ncn2[C@@H]1O[C@H](COP(=O)(N[C@H](C)C(=O)OC(C)C)Oc2ccccc2)C[C@@]1(C)F (single isomer, unassigned) [2a Diastereomer 1]
CC50 at 72 h [1, 4]: > 50 µM
EC50 (HCV genotype 1b replicon; [6]): > 10 µM

CCOc1nc(N)nc2c1ncn2[C@@H]1O[C@H](COP(=O)(N[C@@H](C)C(=O)OC(C)C)Oc2ccccc2)C[C@@]1(C)F (single isomer, unassigned) [2b Diastereomer 1]
CC50 at 72 h [1, 4]: > 50 µM
EC50 (HCV genotype 1b replicon; [7]): > 10 µM

CCOc1nc(N)nc2c1ncn2[C@@H]1O[C@H](COP(=O)(N[C@@H](C)C(=O)OC(C)C)Oc2ccccc2)C[C@@]1(C)F (single isomer, unassigned) [2b Diastereomer 2]
CC50 (Zluc cells): > 50 µM
EC50 (HCV genotype 1b replicon; [7]): 1 to 10 µM

CC(C)OC(=O)[C@H](C)NP(=O)(OC[C@@H]1C[C@@](C)(F)[C@H](n2ccc(N)nc2=O)O1)Oc1ccccc1 (single isomer, unassigned) [3b Diastereomer 1]
CC50 at 72 h [1, 4]: > 50 µM
EC50 (HCV genotype 1b replicon; [6]): > 10 µM

CC(C)OC(=O)[C@H](C)NP(=O)(OC[C@@H]1C[C@@](C)(F)[C@H](n2ccc(=O)[nH]c2=O)O1)Oc1ccccc1 (single isomer, unassigned) [4b Diastereomer 1]
CC50 at 72 h [1, 4]: > 50 µM
EC50 (HCV genotype 1b replicon; [7]): 0.25 to 1 µM

CC(C)OC(=O)[C@H](C)NP(=O)(OC[C@@H]1C[C@@](C)(F)[C@H](n2ccc(=O)[nH]c2=O)O1)Oc1ccccc1 (single isomer, unassigned) [4b Diastereomer 2]
CC50 (Zluc cells): > 50 µM
EC50 (HCV genotype 1b replicon; [7]): 1 to 10 µM

CC(C)OC(=O)[C@H](C)NP(=O)(OC[C@@H]1C[C@@](C)(F)[C@H](n2cnc3c(=O)[nH]c(N)nc32)O1)Oc1ccccc1 (single isomer, unassigned) [lb Diastereomer 2]
CC50 (Zluc cells): > 50 µM
EC50 (HCV genotype 1b replicon; [5]): > 10 µM

C[C@@]1(F)C[C@@H](COP(=O)(O)OP(=O)(O)OP(=O)(O)O)O[C@H]1n1cnc2c(=O)[nH]c(N)nc21 [Compound 101]
IC50 [2]: 1 to 10 µM
IC50 [3]: < 0.25 µM

C[C@@]1(F)C[C@@H](COP(=O)(O)OP(=O)(O)OP(=O)(O)O)O[C@H]1n1ccc(=O)[nH]c1=O [Compound 102]
IC50 [2]: > 10 µM
IC50 [3]: 1 to 10 µM

C[C@@]1(F)C[C@@H](CO)O[C@H]1n1cnc2c(=O)[nH]c(N)nc21 [Compound 201]
CC50 at 72 h [1, 8]: > 50 µM
EC50 (HCV genotype 1b replicon; [6]): > 10 µM

C[C@@]1(F)C[C@@H](CO)O[C@H]1n1ccc(=O)[nH]c1=O [Compound 202]
CC50 at 72 h [1, 8]: > 50 µM
EC50 (HCV genotype 1b replicon; [6]): > 10 µM
